# What was measured:
# Format in all cases: cell-based
# [1] = system: Mucor circinelloides; assay: MIC broth microdilution (CLSI); conditions: Mucor circinelloides 80-14-240-5007
# Experimental: (§1) Antifungal susceptibility was determined by broth microdilution according to the CLSI guidelines described in M27-Ed4 ([16]).
# [2] = system: Cryptococcus bacillisporus; assay: MIC broth microdilution (CLSI); conditions: Cryptococcus bacillisporus NIH179
# Experimental: as §1
# [3] = system: Cryptococcus tetragattii; assay: MIC broth microdilution (CLSI); conditions: Cryptococcus tetragattii WM779
# Experimental: as §1
# [4] = system: Cryptococcus deneoformans; assay: MIC broth microdilution (CLSI); conditions: Cryptococcus deneoformans JEC21
# Experimental: as §1
# [5] = system: Pichia kudriavzevii; assay: MIC broth microdilution (CLSI); conditions: Pichia kudriavzavii ATCC 6258
# Experimental: Antifungal susceptibility was determined by broth microdilution according to the CLSI guidelines described in M27-Ed4 ([16]). […] MFC was determined by back-plating drug-treated cultures from MIC broths onto SDA plates. The MFC was defined as the lowest concentration from which no colonies could be cultured.
# [6] = system: Candida auris; assay: MIC broth microdilution (CLSI); conditions: Candida auris CDC-0384
# Experimental: as §1
# [7] = system: Aspergillus niger; assay: MIC broth microdilution (CLSI); conditions: Aspergillus niger 111
# Experimental: as §1
# [8] = system: Aspergillus terreus; assay: MIC broth microdilution (CLSI); conditions: Aspergillus terreus 75-16-089-2500
# Experimental: as §1
# [9] = system: Aspergillus udagawae; assay: MIC broth microdilution (CLSI); conditions: Aspergillus udagawae 8G81
# Experimental: as §1
# [10] = system: Aspergillus felis; assay: MIC broth microdilution (CLSI); conditions: Aspergillus felis IHE87256683D6
# Experimental: as §1
# [11] = system: Aspergillus parafelis; assay: MIC broth microdilution (CLSI); conditions: Aspergillus parafelis DTO 341-F2
# Experimental: as §1
# [12] = system: Aspergillus frankstonensis; assay: MIC broth microdilution (CLSI); conditions: Aspergillus frankstonensis DTO 341-F3
# Experimental: as §1
# [13] = system: Epidermophyton floccosum; assay: MIC broth microdilution (CLSI); conditions: Epidermophyon floccosum R-113
# Experimental: as §1
# [14] = system: Paraphyton cookei; assay: MIC broth microdilution (CLSI); conditions: Paraphyton cookei R-639
# Experimental: as §1
# [15] = system: Nannizzia gypsea; assay: MIC broth microdilution (CLSI); conditions: Nannizzia gypsea R-131
# Experimental: as §1
# [16] = system: Nannizzia nana; assay: MIC broth microdilution (CLSI); conditions: Nannizzia nana R-133
# Experimental: as §1
# [17] = system: Cryptococcus gattii; assay: checkerboard drug interaction (FICI, MICc);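 note: simplified diagonal checkerboard screen pairing antifungals with FPPS inhibitors, FICI computed under the Loewe additivity model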
# Experimental: (§2) Drug interactions between antifungals and FPPS inhibitors were investigated using a simplified checkerboard diagonal screening method ([45]). […] FICIs were determined according to the Loewe additivity model ([17]).
# [18] = system: Cryptococcus bacillisporus; assay: checkerboard drug interaction (FICI, MICc);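 note: interaction of antifungals with FPPS inhibitors assessed by a simplified diagonal checkerboard screen, with FICI computed under the Loewe additivity model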
# Experimental: as §2
# [19] = system: Fusarium oxysporum; assay: checkerboard drug interaction (FICI, MICc);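 note: simplified diagonal checkerboard screen pairing antifungals with FPPS inhibitors, FICI calculated under the Loewe additivity model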
# Experimental: as §2
# [20] = system: Fusarium solani; assay: checkerboard drug interaction (FICI, MICc);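 note: simplified diagonal checkerboard screen pairing antifungals with FPPS inhibitors, FICI derived under the Loewe additivity model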
# Experimental: as §2
# [21] = system: Scedosporium apiospermum; assay: checkerboard drug interaction (FICI, MICc);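 note: simplified diagonal checkerboard screen of antifungal plus FPPS inhibitor pairs, with FICI computed under the Loewe additivity model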
# Experimental: as §2
# [22] = system: Pichia kudriavzevii; assay: checkerboard drug interaction (FICI, MICc);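 note: antifungal plus FPPS inhibitor interactions tested in a simplified diagonal checkerboard screen, with FICI calculated under the Loewe additivity model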
# Experimental: as §2
# [23] = system: Candida parapsilosis; assay: checkerboard drug interaction (FICI, MICc);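 note: simplified diagonal checkerboard screen pairing antifungals with FPPS inhibitors, with FICI computed under the Loewe additivity model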
# Experimental: as §2
# [24] = system: Candida dubliniensis; assay: checkerboard drug interaction (FICI, MICc);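 note: simplified diagonal checkerboard screen pairing antifungals with FPPS inhibitors, FICI calculated under the Loewe additivity model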
# Experimental: as §2
# [25] = system: Aspergillus niger; assay: checkerboard drug interaction (FICI, MICc);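 note: simplified diagonal checkerboard screen pairing antifungals with FPPS inhibitors, FICI calculated under the Loewe additivity model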
# Experimental: as §2
smiles,measurement,setting,value
"O=P(O)(O)C(O)(Cn1ccnc1)P(=O)(O)O [ZOL, zoledronate]",MIC / MEC,[1],64 µg/mL
same,MIC / MEC,[2],128 µg/mL
same,MIC / MEC,[3],64 µg/mL
same,MIC / MEC,[4],128 µg/mL
same,MIC / MEC,[5],256 µg/mL
same,MIC / MEC,[6],128 µg/mL
same,MIC / MEC,[7],>256 µg/mL
same,MIC / MEC,[8],128 µg/mL
same,MIC / MEC,[9],256 µg/mL
same,MIC / MEC,[10],>256 µg/mL
same,MIC / MEC,[11],>256 µg/mL
same,MIC / MEC,[12],128 µg/mL
same,MIC / MEC,[13],64 µg/mL
same,MIC / MEC,[14],128 µg/mL
same,MIC / MEC,[15],256 µg/mL
same,MIC / MEC,[16],128 µg/mL
same,FICI,[17]; 5FC:ZOL,1.25
same,FICI,[17]; AMB:ZOL,1.5
same,FICI,[17]; CAS:ZOL,≥4
same,FICI,[17]; FLC:ZOL,0.38
same,FICI,[17]; ITR:ZOL,0.63
same,FICI,[17]; KET:ZOL,1.03
same,FICI,[17]; VOR:ZOL,1.25
same,bisphosphonate MICc,[17]; ZOL with 5FC,128
same,bisphosphonate MICc,[17]; ZOL with AMB,64
same,bisphosphonate MICc,[17]; ZOL with CAS,256
same,bisphosphonate MICc,[17]; ZOL with FLC,32
same,bisphosphonate MICc,[17]; ZOL with ITR,16
same,bisphosphonate MICc,[17]; ZOL with KET,4
same,bisphosphonate MICc,[17]; ZOL with VOR,32
same,FICI,[18]; 5FC:ZOL,1.03
same,FICI,[18]; AMB:ZOL,6
same,FICI,[18]; CAS:ZOL,1.13
same,FICI,[18]; FLC:ZOL,0.38
same,FICI,[18]; ITR:ZOL,1.29
same,FICI,[18]; KET:ZOL,1.02
same,FICI,[18]; VOR:ZOL,2.33
same,bisphosphonate MICc,[18]; ZOL with 5FC,128
same,bisphosphonate MICc,[18]; ZOL with AMB,256
same,bisphosphonate MICc,[18]; ZOL with CAS,16
same,bisphosphonate MICc,[18]; ZOL with FLC,32
same,bisphosphonate MICc,[18]; ZOL with ITR,32
same,bisphosphonate MICc,[18]; ZOL with KET,2
same,bisphosphonate MICc,[18]; ZOL with VOR,32
same,FICI,[19]; 5FC:ZOL,≥4
same,FICI,[19]; AMB:ZOL,0.63
same,FICI,[19]; CAS:ZOL,2.5
same,FICI,[19]; FLC:ZOL,0.75
same,FICI,[19]; ITR:ZOL,0.5
same,FICI,[19]; KET:ZOL,0.75
same,FICI,[19]; VOR:ZOL,1.02
same,bisphosphonate MICc,[19]; ZOL with 5FC,256
same,bisphosphonate MICc,[19]; ZOL with AMB,64
same,bisphosphonate MICc,[19]; ZOL with CAS,256
same,bisphosphonate MICc,[19]; ZOL with FLC,256
same,bisphosphonate MICc,[19]; ZOL with ITR,128
same,bisphosphonate MICc,[19]; ZOL with KET,256
same,bisphosphonate MICc,[19]; ZOL with VOR,8
same,FICI,[20]; 5FC:ZOL,3
same,FICI,[20]; AMB:ZOL,0.75
same,FICI,[20]; CAS:ZOL,≥4
same,FICI,[20]; FLC:ZOL,0.75
same,FICI,[20]; ITR:ZOL,0.38
same,FICI,[20]; KET:ZOL,0.75
same,FICI,[20]; VOR:ZOL,1.03
same,bisphosphonate MICc,[20]; ZOL with 5FC,256
same,bisphosphonate MICc,[20]; ZOL with AMB,64
same,bisphosphonate MICc,[20]; ZOL with CAS,256
same,bisphosphonate MICc,[20]; ZOL with FLC,128
same,bisphosphonate MICc,[20]; ZOL with ITR,32
same,bisphosphonate MICc,[20]; ZOL with KET,128
same,bisphosphonate MICc,[20]; ZOL with VOR,8
same,FICI,[21]; 5FC:ZOL,3
same,FICI,[21]; AMB:ZOL,1.5
same,FICI,[21]; CAS:ZOL,≥4
same,FICI,[21]; FLC:ZOL,0.63
same,FICI,[21]; ITR:ZOL,0.56
same,FICI,[21]; KET:ZOL,0.63
same,FICI,[21]; VOR:ZOL,1.5
same,bisphosphonate MICc,[21]; ZOL with 5FC,256
same,bisphosphonate MICc,[21]; ZOL with AMB,128
same,bisphosphonate MICc,[21]; ZOL with CAS,512
same,bisphosphonate MICc,[21]; ZOL with FLC,32
same,bisphosphonate MICc,[21]; ZOL with ITR,16
same,bisphosphonate MICc,[21]; ZOL with KET,32
same,bisphosphonate MICc,[21]; ZOL with VOR,128
same,FICI,[22]; 5FC:ZOL,1.13
same,FICI,[22]; AMB:ZOL,0.63
same,FICI,[22]; CAS:ZOL,0.56
same,FICI,[22]; FLC:ZOL,0.67
same,FICI,[22]; ITR:ZOL,0.5
same,FICI,[22]; KET:ZOL,0.38
same,FICI,[22]; VOR:ZOL,2.25
same,bisphosphonate MICc,[22]; ZOL with 5FC,256
same,bisphosphonate MICc,[22]; ZOL with AMB,32
same,bisphosphonate MICc,[22]; ZOL with CAS,16
same,bisphosphonate MICc,[22]; ZOL with FLC,128
same,bisphosphonate MICc,[22]; ZOL with ITR,64
same,bisphosphonate MICc,[22]; ZOL with KET,64
same,bisphosphonate MICc,[22]; ZOL with VOR,64
same,FICI,[23]; 5FC:ZOL,1
same,FICI,[23]; AMB:ZOL,1.5
same,FICI,[23]; CAS:ZOL,0.75
same,FICI,[23]; FLC:ZOL,0.38
same,FICI,[23]; ITR:ZOL,0.5
same,FICI,[23]; KET:ZOL,0.53
same,FICI,[23]; VOR:ZOL,1.21
same,bisphosphonate MICc,[23]; ZOL with 5FC,64
same,bisphosphonate MICc,[23]; ZOL with AMB,64
same,bisphosphonate MICc,[23]; ZOL with CAS,32
same,bisphosphonate MICc,[23]; ZOL with FLC,32
same,bisphosphonate MICc,[23]; ZOL with ITR,32
same,bisphosphonate MICc,[23]; ZOL with KET,4
same,bisphosphonate MICc,[23]; ZOL with VOR,32
same,FICI,[24]; 5FC:ZOL,0.56
same,FICI,[24]; AMB:ZOL,2
same,FICI,[24]; CAS:ZOL,0.2
same,FICI,[24]; FLC:ZOL,0.42
same,FICI,[24]; ITR:ZOL,0.5
same,FICI,[24]; KET:ZOL,0.38
same,FICI,[24]; VOR:ZOL,0.46
same,bisphosphonate MICc,[24]; ZOL with 5FC,0.25
same,bisphosphonate MICc,[24]; ZOL with AMB,4
same,bisphosphonate MICc,[24]; ZOL with CAS,0.125
same,bisphosphonate MICc,[24]; ZOL with FLC,1
same,bisphosphonate MICc,[24]; ZOL with ITR,1
same,bisphosphonate MICc,[24]; ZOL with KET,1
same,bisphosphonate MICc,[24]; ZOL with VOR,1
same,FICI,[25]; 5FC:ZOL,3
same,FICI,[25]; AMB:ZOL,0.98
same,FICI,[25]; CAS:ZOL,2
same,FICI,[25]; FLC:ZOL,2
same,FICI,[25]; ITR:ZOL,0.56
same,FICI,[25]; KET:ZOL,1
same,FICI,[25]; VOR:ZOL,1.02

# Reference: article PMC12892976, “Alkylation-based optimization of antifungal FPPS inhibitors yields a potent, broad-spectrum lipophilic zoledronate derivative” (mBio, 2025)
